Target: ROCK2 (Homo sapiens (Human), UniProt O75116)
Experiment: biochemical
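Note: rho kinase enzyme reaction halted with EDTA, phospho- and non-phospho peptide separated for read-out, kinase activity inhibition derived across a dose-response series, DMSO under 2%.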

Chain of ROCK2 (O75116 whole entry, species assumed): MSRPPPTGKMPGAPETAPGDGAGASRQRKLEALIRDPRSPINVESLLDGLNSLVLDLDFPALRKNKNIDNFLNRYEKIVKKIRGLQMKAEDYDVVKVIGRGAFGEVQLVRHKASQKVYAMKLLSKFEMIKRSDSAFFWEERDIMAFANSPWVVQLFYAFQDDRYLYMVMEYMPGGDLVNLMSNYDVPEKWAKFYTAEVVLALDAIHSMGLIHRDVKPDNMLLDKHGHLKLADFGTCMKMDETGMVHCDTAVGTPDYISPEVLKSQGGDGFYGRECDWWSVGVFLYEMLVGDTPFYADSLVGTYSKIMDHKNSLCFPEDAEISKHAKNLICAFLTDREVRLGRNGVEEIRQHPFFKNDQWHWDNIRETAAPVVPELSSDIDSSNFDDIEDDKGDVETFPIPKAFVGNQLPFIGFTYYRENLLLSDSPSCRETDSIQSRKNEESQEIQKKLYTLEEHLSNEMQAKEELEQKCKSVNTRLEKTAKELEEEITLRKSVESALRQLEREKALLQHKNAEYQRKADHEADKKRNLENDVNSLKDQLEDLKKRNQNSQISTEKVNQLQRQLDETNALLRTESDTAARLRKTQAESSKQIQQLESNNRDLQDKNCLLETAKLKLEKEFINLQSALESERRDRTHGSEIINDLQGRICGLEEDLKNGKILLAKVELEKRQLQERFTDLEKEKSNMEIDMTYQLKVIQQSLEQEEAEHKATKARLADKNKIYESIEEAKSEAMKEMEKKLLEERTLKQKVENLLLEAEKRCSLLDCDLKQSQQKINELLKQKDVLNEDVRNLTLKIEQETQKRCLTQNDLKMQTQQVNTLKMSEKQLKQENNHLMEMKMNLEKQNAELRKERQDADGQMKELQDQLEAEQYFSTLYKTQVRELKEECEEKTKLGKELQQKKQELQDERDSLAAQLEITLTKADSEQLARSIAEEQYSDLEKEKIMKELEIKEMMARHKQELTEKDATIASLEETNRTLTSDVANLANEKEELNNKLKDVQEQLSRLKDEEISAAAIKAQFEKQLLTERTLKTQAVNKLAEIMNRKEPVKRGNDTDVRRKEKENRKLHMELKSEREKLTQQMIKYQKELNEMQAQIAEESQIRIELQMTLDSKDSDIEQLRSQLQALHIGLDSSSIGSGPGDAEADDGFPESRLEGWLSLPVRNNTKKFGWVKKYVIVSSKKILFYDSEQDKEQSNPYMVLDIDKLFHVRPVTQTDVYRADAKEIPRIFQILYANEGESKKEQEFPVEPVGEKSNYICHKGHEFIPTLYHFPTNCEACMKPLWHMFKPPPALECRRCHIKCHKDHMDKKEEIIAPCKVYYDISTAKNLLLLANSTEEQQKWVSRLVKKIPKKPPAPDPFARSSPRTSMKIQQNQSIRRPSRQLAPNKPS

SMILES | IC50 [nM]
COc1cccc(NC2CCN(c3ccc(-c4cn[nH]c4)c(C(N)=O)c3)C2=O)c1 (single isomer, unassigned) [Example 130, 5-(3-((3-Methoxyphenyl)amino)-2-oxopyrrolidin-1-yl)-2-(1H-pyrazol-4-yl)benzamide] | 100 to 2200
COc1cc(NC2CCN(c3ccc(-c4cn[nH]c4)c(OC)c3)C2=O)cc(OC)c1 (single isomer, unassigned) [Example 139, 3-((3,5-dimethoxyphenyl)amino)-1-(3-methoxy-4-(1H-pyrazol-4-yl)phenyl) pyrrolidin-2-one] | 100 to 2200
COc1ccc(NC2CCN(c3ccc(-c4cn[nH]c4)c(OC)c3)C2=O)cc1F (single isomer, unassigned) [Example 141, 3-((3-fluoro-4-methoxyphenyl)amino)-1-(3-methoxy-4-(1H-pyrazol-4-yl)phenyl) pyrrolidin-2-one] | 100 to 2200
COc1cc(F)ccc1NC1CCN(c2ccc(-c3cn[nH]c3)c(OC)c2)C1=O (single isomer, unassigned) [Example 143, 3-((4-fluoro-2-methoxyphenyl)amino)-1-(3-methoxy-4-(1H-pyrazol-4-yl)phenyl) pyrrolidin-2-one] | 100 to 2200
COc1cc(N2CCC(Nc3cc(F)cc(F)c3)C2=O)ccc1-c1cn[nH]c1 (single isomer, unassigned) [Example 145, 3-((3,5-difluorophenyl)amino)-1-(3-methoxy-4-(1H-pyrazol-4-yl)phenyl) pyrrolidin-2-one] | 10 to 100
COc1cc(N2CCC(Nc3cccc(F)c3OC)C2=O)ccc1-c1cn[nH]c1 (single isomer, unassigned) [Example 150, 3-((3-fluoro-2-methoxyphenyl)amino)-1-(3-methoxy-4-(1H-pyrazol-4-yl)phenyl) pyrrolidin-2-one] | 100 to 2200
COc1cc(N2CCC(Nc3cccc(F)c3OC)C2=O)ccc1-c1cn[nH]c1 (single isomer, unassigned) [Example 151, 3-((3-fluoro-2-methoxyphenyl)amino)-1-(3-methoxy-4-(1H-pyrazol-4-yl)phenyl) pyrrolidin-2-one] | < 10

The remaining lines, values ahead:

IC50 [nM] | SMILES
10 to 100 | COc1cc(N2CCC(Nc3c(F)cccc3OC)C2=O)ccc1-c1cn[nH]c1 (single isomer, unassigned) [Example 135, 3-((2-fluoro-6-methoxyphenyl)amino)-1-(3-methoxy-4-(1H-pyrazol-4-yl)phenyl) pyrrolidin-2-one]
< 10 | COc1cc(F)cc(NC2CCN(c3ccc(-c4cn[nH]c4)c(OC)c3)C2=O)c1 (single isomer, unassigned) [Example 137, 3-((3-fluoro-5-methoxyphenyl)amino)-1-(3-methoxy-4-(1H-pyrazol-4-yl)phenyl) pyrrolidin-2-one]
< 10 | COc1cc(N2CCC(Nc3cc(F)cc(F)c3)C2=O)ccc1-c1cn[nH]c1 (single isomer, unassigned) [Example 146, 3-((3,5-difluorophenyl)amino)-1-(3-methoxy-4-(1H-pyrazol-4-yl)phenyl) pyrrolidin-2-one]
10 to 100 | COc1ccc(F)c(NC2CCN(c3ccc(-c4cn[nH]c4)c(OC)c3)C2=O)c1 (single isomer, unassigned) [Example 147, 3-((2-fluoro-5-methoxyphenyl)amino)-1-(3-methoxy-4-(1H-pyrazol-4-yl)phenyl) pyrrolidin-2-one]
100 to 2200 | COc1ccc(NC2CCN(c3ccc(-c4cn[nH]c4)c(OC)c3)C2=O)c(F)c1 (single isomer, unassigned) [Example 152, 3-((2-fluoro-4-methoxyphenyl)amino)-1-(3-methoxy-4-(1H-pyrazol-4-yl)phenyl) pyrrolidin-2-one]
100 to 2200 | COc1cc(NC2CCN(c3ccc(-c4cn[nH]c4)c(OC)c3)C2=O)ccc1F (single isomer, unassigned) [Example 154, 3-((4-fluoro-3-methoxyphenyl)amino)-1-(3-methoxy-4-(1H-pyrazol-4-yl)phenyl) pyrrolidin-2-one]
